According to patent US20250250282A1, “NOVEL SEVEN-MEMBERED RING-FUSED COMPOUNDS” (PRISM Biolab Co., Ltd., priority 2022, published 2025):

These compounds were tested on CellSensor T-REx NICD CSL-bla HeLa cell line (Notch response element driving beta-lactamase reporter) (assay: Notch assay (CSL-bla beta-lactamase reporter, DOX-inducible NICD)). Settings: Homo sapiens; 10 μM compound; HeLa/T-REx NICD CSL-bla cells, doxycycline-induced, 16-20 hours incubation; blue/green emission ratio.
Type: cell-based
Method: We used the CellSensor T-REx™ NICD CSL-bla HeLa cell line, which was engineered by lentiviral transduction of HeLa cells with a Notch response element driving beta-lactamase reporter gene expression (CSL-bla) along with DOX (doxycycline)-inducible NICD (Notch intracellular domain) constructs. Addition of DOX to these cells allows for regulated NICD transcription factor expression and subsequent beta-lactamase expression.
Specifically, the following protocol was used.
• 1. Plate Cells: 32 μL/well of HeLa/T-REx™ NICD CSL-bla cells at 10^3 cells/well complete medium into 384-well plate. • 2. Prepare 10× compounds in assay medium. • 3. Add 4 μL compounds or 1% DMSO in assay medium to the cells. • 4. Add 4 μL 10× Doxycycline in Assay Medium to the treated wells, and 4 μL Assay Medium to the Untreated and cell free control wells. • 5. Incubate the assay plate in a humidified 37° C./5% CO2 incubator for 16-20 hours. • 6. Preparation of 6× LiveBLAzer™-FRET B/G Substrate (CCF4-AM) Mixture according to the manual and cell loading should be done in the absence of direct strong lighting. • 7. Remove assay plate from the humidified 37° C./5% CO2 incubator. Add 8 μl of 6× Substrate Mixture from […] to each well. Cover the plate to protect it from light and evaporation. Incubate at room temperature for 4 hours. • 8. Reading an Assay Plate using the following filter selections:
• 9. Data analysis: Use the assay plate layout to identify the location of the Cell-free wells. These control wells are used for background subtraction. Determine the average emission from the Cell-free wells at both 460 nm (Average Blue Background) and 530 nm (Average Green Background). Subtract the Average Blue Background (data collected at 460 nm) from all of the blue emission data. Subtract the Average Green background (data collected at 530 nm) from all of the green emission data. Calculate the Blue/Green Emission Ratio for each well, by dividing the background-subtracted blue emission values by the background-subtracted green emission values.

In order of falling inhibition at 10 µM:
1. CC(C)CCN1CC2N(C[C@@H](Cc3ccc(O)cc3)C1=O)C(=O)c1sccc1N2C(=O)NCc1ccc2c(c1)OCO2 (stereo partly drawn) [ID-33, (8R)—N-(benzo[d][1,3]dioxol-5-ylmethyl)-8-(4-hydroxybenzyl)-6-isopentyl-7,11-dioxo-4a,5,6,7,8,9-hexahydrothieno[3′,2′:4,5]pyrimido[1,2-a][1,4]diazepine-4(11H)-carboxamide]  68.2%
2. Cc1ccc(CNC(=O)N2c3ccsc3C(=O)N3C[C@@H](Cc4ccc(O)cc4)C(=O)N(CCC(C)C)CC32)cc1 (stereo partly drawn) [ID-37, (8R)-8-(4-hydroxybenzyl)-6-isopentyl-N-(4-methylbenzyl)-7,11-dioxo-4a,5,6,7,8,9-hexahydrothieno[3′,2′:4,5]pyrimido[1,2-a][1,4]diazepine-4(11H)-carboxamide]  66.3%
3. O=C1[C@H](Cc2ccccc2)CN2C(=O)CCN(C(=O)NCCC(c3ccccc3)c3ccccc3)C2CN1Cc1ccccc1 (stereo partly drawn) [ID-08, (7R)-7,9-dibenzyl-N-(3,3-diphenylpropyl)-4,8-dioxooctahydropyrimido[1,2-a][1,4]diazepine-1(2H)-carboxamide]  64.9%
4. O=C1[C@H](Cc2ccc(O)cc2)CN2C(=O)CCN(C(=O)NCCC(c3ccccc3)c3ccccc3)C2CN1CCc1ccccc1 (stereo partly drawn) [ID-11, (7R)—N-(3,3-diphenylpropyl)-7-(4-hydroxybenzyl)-4,8-dioxo-9-phenethyloctahydropyrimido[1,2-a][1,4]diazepine-1(2H)-carboxamide]  64.1%
5. CC(C)[C@@H]1CN2C(=O)CCN(C(=O)NCCC(c3ccccc3)c3ccccc3)C2CN(Cc2ccc3ccccc3c2)C1=O (stereo partly drawn) [ID-14, (7R)—N-(3,3-diphenylpropyl)-7-isopropyl-9-(naphthalen-2-ylmethyl)-4,8-dioxooctahydropyrimido[1,2-a][1,4]diazepine-1(2H)-carboxamide]  62.4%
6. O=C1[C@H](Cc2ccc(O)cc2)CN2C(=O)c3sccc3N(C(=O)NCC3CCCCC3)C2CN1Cc1cccc2cccnc12 (stereo partly drawn) [ID-30, (8R)—N-(cyclohexylmethyl)-8-(4-hydroxybenzyl)-7,11-dioxo-6-(quinolin-8-ylmethyl)-4a,5,6,7,8,9-hexahydrothieno[3′,2′:4,5]pyrimido[1,2-a][1,4]diazepine-4(11H)-carboxamide]  61.2%
7. O=C1[C@H](Cc2ccccc2)CN2C(=O)CCN(C(=O)NCC3CCCCC3)C2CN1Cc1cccc2ccccc12 (stereo partly drawn) [ID-16, (7R)-7-benzyl-N-(cyclohexylmethyl)-9-(naphthalen-1-ylmethyl)-4,8-dioxooctahydropyrimido[1,2-a][1,4]diazepine-1(2H)-carboxamide]  60.2%
8. CC(C)[C@@H]1CN2C(=O)c3sccc3N(C(=O)NCc3ccccc3)C2CN(Cc2ccc3ccccc3c2)C1=O (stereo partly drawn) [ID-20, (8R)—N-benzyl-8-isopropyl-6-(naphthalen-2-ylmethyl)-7,11-dioxo-4a,5,6,7,8,9-hexahydrothieno[3′,2′:4,5]pyrimido[1,2-a][1,4]diazepine-4(11H)-carboxamide]  56.8%
9. O=C1[C@H](Cc2ccc(O)cc2)CN2C(=O)c3sccc3N(C(=O)NCCc3ccccc3)C2CN1Cc1cccc2ccccc12 (stereo partly drawn) [ID-22, (8R)-8-(4-hydroxybenzyl)-6-(naphthalen-1-ylmethyl)-7,11-dioxo-N-phenethyl-4a,5,6,7,8,9-hexahydrothieno[3′,2′:4,5]pyrimido[1,2-a][1,4]diazepine-4(11H)-carboxamide]  56.2%
10. CCCCN1CC2N(C[C@@H](Cc3ccc(O)cc3)C1=O)C(=O)c1sccc1N2C(=O)NCc1ccc(C)cc1 (stereo partly drawn) [ID-36, (8R)-6-butyl-8-(4-hydroxybenzyl)-N-(4-methylbenzyl)-7,11-dioxo-4a,5,6,7,8,9-hexahydrothieno[3′,2′:4,5]pyrimido[1,2-a][1,4]diazepine-4(11H)-carboxamide]  55.9%
11. CC(C)[C@@H]1CN2C(=O)c3sccc3N(C(=O)NCc3cccs3)C2CN(Cc2ccc3ccccc3c2)C1=O (stereo partly drawn) [ID-35, (8R)-8-isopropyl-6-(naphthalen-2-ylmethyl)-7,11-dioxo-N-(thiophen-2-ylmethyl)-4a,5,6,7,8,9-hexahydrothieno[3′,2′:4,5]pyrimido[1,2-a][1,4]diazepine-4(11H)-carboxamide]  54.9%
12. CCCCN1CC2N(C[C@@H](Cc3ccccc3)C1=O)C(=O)CCN2C(=O)NCCC(c1ccccc1)c1ccccc1 (stereo partly drawn) [ID-04, (7R)-7-benzyl-9-butyl-N-(3,3-diphenylpropyl)-4,8-dioxooctahydropyrimido[1,2-a][1,4]diazepine-1(2H)-carboxamide]  54.7%
13. O=C1[C@H](Cc2ccccc2)CN2C(=O)CCN(C(=O)NCCC(c3ccccc3)c3ccccc3)C2CN1CC1CCCCC1 (stereo partly drawn) [ID-07, (7R)-7-benzyl-9-(cyclohexylmethyl)-N-(3,3-diphenylpropyl)-4,8-dioxooctahydropyrimido[1,2-a][1,4]diazepine-1(2H)-carboxamide]  54.7%
14. O=C1[C@H](Cc2ccccc2)CN2C(=O)c3sccc3N(C(=O)NCCc3ccccc3)C2CN1Cc1cccc2cccnc12 (stereo partly drawn) [ID-23, (8R)-8-benzyl-7,11-dioxo-N-phenethyl-6-(quinolin-8-ylmethyl)-4a,5,6,7,8,9-hexahydrothieno[3′,2′:4,5]pyrimido[1,2-a][1,4]diazepine-4(11H)-carboxamide]  54.6%
15. O=C1[C@H](Cc2ccc(O)cc2)CN2C(=O)c3sccc3N(C(=O)NCc3cccc4ccccc34)C2CN1CC1CCCCC1 (stereo partly drawn) [ID-27, (8R)-6-(cyclohexylmethyl)-8-(4-hydroxybenzyl)-N-(naphthalen-1-ylmethyl)-7,11-dioxo-4a,5,6,7,8,9-hexahydrothieno[3′,2′:4,5]pyrimido[1,2-a][1,4]diazepine-4(11H)-carboxamide]  54.4%
16. O=C1[C@H](Cc2ccc(O)cc2)CN2C(=O)CCN(C(=O)NCCC(c3ccccc3)c3ccccc3)C2CN1Cc1cccc2cccnc12 (stereo partly drawn) [ID-13, (7R)—N-(3,3-diphenylpropyl)-7-(4-hydroxybenzyl)-4,8-dioxo-9-(quinolin-8-ylmethyl)octahydropyrimido[1,2-a][1,4]diazepine-1(2H)-carboxamide]  53.7%
17. CC(C)CCN1CC2N(C[C@@H](CC(C)C)C1=O)C(=O)c1sccc1N2C(=O)NCc1cccc2ccccc12 (stereo partly drawn) [ID-25, (8R)-8-isobutyl-6-isopentyl-N-(naphthalen-1-ylmethyl)-7,11-dioxo-4a,5,6,7,8,9-hexahydrothieno[3′,2′:4,5]pyrimido[1,2-a][1,4]diazepine-4(11H)-carboxamide]  52.8%
18. CCCCN1CC2N(C[C@@H](Cc3ccc(O)cc3)C1=O)C(=O)c1sccc1N2C(=O)NCc1ccc2c(c1)OCO2 (stereo partly drawn) [ID-32, (8R)—N-(benzo[d][1,3]dioxol-5-ylmethyl)-6-butyl-8-(4-hydroxybenzyl)-7,11-dioxo-4a,5,6,7,8,9-hexahydrothieno[3′,2′:4,5]pyrimido[1,2-a][1,4]diazepine-4(11H)-carboxamide]  52.5%
19. CC(C)COC(=O)N1c2ccsc2C(=O)N2C[C@@H](Cc3ccc(O)cc3)C(=O)N(Cc3cccc4ccccc34)CC21 (stereo partly drawn) [ID-38, isobutyl (8R)-8-(4-hydroxybenzyl)-6-(naphthalen-1-ylmethyl)-7,11-dioxo-4a,5,6,7,8,9-hexahydrothieno[3′,2′:4,5]pyrimido[1,2-a][1,4]diazepine-4(11H)-carboxylate]  52.4%
20. CC(C)CCN1CC2N(C[C@@H](Cc3ccccc3)C1=O)C(=O)c1sccc1N2C(=O)NCc1ccc2c(c1)OCO2 (stereo partly drawn) [ID-34, (8R)—N-(benzo[d][1,3]dioxol-5-ylmethyl)-8-benzyl-6-isopentyl-7,11-dioxo-4a,5,6,7,8,9-hexahydrothieno[3′,2′:4,5]pyrimido[1,2-a][1,4]diazepine-4(11H)-carboxamide]  52.4%
21. CC(C)CCN1CC2N(C[C@@H](Cc3ccccc3)C1=O)C(=O)CCN2C(=O)NCCC(c1ccccc1)c1ccccc1 (stereo partly drawn) [ID-06, (7R)-7-benzyl-N-(3,3-diphenylpropyl)-9-isopentyl-4,8-dioxooctahydropyrimido[1,2-a][1,4]diazepine-1(2H)-carboxamide]  51.8%
22. O=C1[C@H](Cc2ccccc2)CN2C(=O)CCN(C(=O)NCCC(c3ccccc3)c3ccccc3)C2CN1CCc1ccccc1 (stereo partly drawn) [ID-12, (7R)-7-benzyl-N-(3,3-diphenylpropyl)-4,8-dioxo-9-phenethyloctahydropyrimido[1,2-a][1,4]diazepine-1(2H)-carboxamide]  51.7%
23. CC(C)C[C@@H]1CN2C(=O)CCN(C(=O)NCCC(c3ccccc3)c3ccccc3)C2CN(CCc2ccccc2)C1=O (stereo partly drawn) [ID-10, (7R)—N-(3,3-diphenylpropyl)-7-isobutyl-4,8-dioxo-9-phenethyloctahydropyrimido[1,2-a][1,4]diazepine-1(2H)-carboxamide]  50.3%
